The subject of the experiment is HBV εRNA. Put plainly: εRNA/oligonucleotide hybridization inhibition assay with rRNA competitor. It is filed as binding, Hepatitis B virus. Conditions: for IC50: radiolabeled εRNA, 60-fold excess rRNA competitor; for Specificity: ratio RRE+rRNA IC50/εRNA+rRNA IC50, max = inactive in RRE assay. The essentials: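 Inhibition of hybridization between 25 nM [32P]-εRNA and 100 nM biotinylated complementary oligonucleotide (50 mM Tris-HCl pH 7.5, 200 mM KCl, 5 mM MgCl2, 60 min, 25 °C), hybrids captured by streptavidin filter and counted. Titrations 0.1-200 μM with 60-fold excess rRNA; specificity = RRE+rRNA IC50/εRNA+rRNA IC50.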

Usually IC50 stands for the point on the concentration scale where inhibition reaches its midpoint.

Consider `Cc1ccc(Nc2nc(NCc3ccccc3)nc(NN=Cc3ccc(F)cc3F)n2)cc1C` [Compound 191], for which the IC50 amounted to 87 µM and the Specificity entry is reported as “max”.
In the case of `Cc1ccc(Nc2nc(NN=Cc3ccccc3)nc(Nc3ccccc3)n2)c(C)c1` [Compound 7], the concentration for half-maximal inhibition (IC50) stood at 2.4 µM and the Specificity entry is “max”.
In the same order, the values of `Cc1ccc(Nc2nc(NCc3ccccc3)nc(NN=Cc3ccccc3F)n2)cc1C` [Compound 228] are 79.3 µM and “max”.
Take `COc1ccc(Nc2nc(NN=Cc3cc(Br)cc(Br)c3O)nc(N3CCOCC3)n2)cc1` [Compound 200]: the IC50 was found to be 12.1 µM and the Specificity entry is given as “max”.
Regarding `Cc1ccccc1Nc1nc(NN=Cc2ccc3c(c2)OCO3)nc(Nc2ccc([N+](=O)[O-])cc2)n1` [Compound 29], the IC50 was 24.8 µM and the Specificity entry was “max”.
With `Cc1ccc(Nc2nc(NN=Cc3ccccc3)nc(Nc3ccccc3)n2)cc1` [Compound 25], the half-maximal inhibitory concentration (IC50) turned out to be 11.9 µM and the Specificity result was “max”.
Regarding `FC(F)(F)c1cccc(Nc2nc(NN=Cc3ccc(Cl)cc3)nc(N3CCOCC3)n2)c1` [Compound 120], the IC50 turned out to be 46 µM and the Specificity is given as 24.1.
In the same order, the values of `Cc1ccc(Nc2nc(NCc3ccccc3)nc(Nc3ccc([N+](=O)[O-])cc3)n2)cc1C` [Compound 194] are 34 µM and “max”.
Regarding `O=C(NNc1nc(Nc2ccccc2)nc(Nc2cccc(C(F)(F)F)c2)n1)c1cccc(Br)c1` [Compound 220], the IC50 worked out at 27.6 µM and the Specificity was found to be 33.3.
In the case of `Oc1ccc2ccccc2c1C=NNc1nc(Nc2cccc3ccccc23)nc(N2CCOCC2)n1` [Compound 167], the IC50 amounted to 50.9 µM and the Specificity result is given as “max”.
Take `Brc1cccc(C=NNc2nc(Nc3ccccc3)nc(N3CCOCC3)n2)c1` [Compound 163]: the 50% inhibitory concentration (IC50) worked out at 99 µM and the Specificity result is “max”.
In the same order, the values of `O=[N+]([O-])c1ccc(Nc2nc(NCc3ccccc3)nc(N3CCOCC3)n2)cc1` [Compound 231] are 195 µM and “max”.
On to `CN(C)c1nc(NCc2ccccc2)nc(NN=Cc2ccc(Cl)cc2Cl)n1` [Compound 224], for which the IC50 was determined as 60.1 µM and the Specificity entry is “max”.
Take `CCCCN(CCCC)c1nc(NN=Cc2cccc(Cl)c2)nc(Nc2ccc([N+](=O)[O-])cc2)n1` [Compound 35]: the half-inhibitory concentration (IC50) turned out to be 24.9 µM and the Specificity entry is recorded as “max”.
Take `Fc1cccc(C=NNc2nc(Nc3ccccc3)nc(N3CCCC3)n2)c1` [Compound 201]: the half-maximal inhibitory concentration (IC50) came to 53 µM and the Specificity entry was “max”.
`Cc1ccc(Nc2nc(NCc3ccccc3)nc(NN=Cc3cc(Cl)ccc3O)n2)cc1C` [Compound 226]: the half-inhibitory concentration (IC50) was determined as 84.4 µM and the Specificity was found to be 5.0.
In the same order, the values of `CCCCN(CCCC)c1nc(N/N=C/c2cc(I)cc(I)c2O)nc(Nc2ccc([N+](=O)[O-])cc2)n1` [Compound 8] are 4 µM and “max”.
In the same order, the values of `CCCCN(CCCC)c1nc(NN=Cc2ccc(OCC)c(O)c2)nc(Nc2ccc([N+](=O)[O-])cc2)n1` [Compound 23] are 5.7 µM and “max”.
`Cc1ccc(Nc2nc(NN=Cc3cccc(I)c3)nc(Nc3ccccc3)n2)cc1` [Compound 30]: the IC50 was 25 µM and the Specificity entry is recorded as “max”.
In the same order, the values of `CN(C)c1nc(NCc2ccccc2)nc(NCc2cccs2)n1` [Compound 192] are 235 µM and “max”.
`Cc1cccc(C(=O)Oc2ccc(C=NNc3nc(N4CCCCC4)nc(N4CCCCC4)n3)cc2)c1` [Compound 181]: the IC50 amounted to 60 µM and the Specificity entry is listed as “max”.
Take `CCCCN(CCCC)c1nc(NN=Cc2ccc3c(c2)OCO3)nc(Nc2ccc([N+](=O)[O-])cc2)n1` [Compound 11]: the IC50 is 15 µM and the Specificity entry is recorded as “max”.
For `CC(=NNc1nc(Nc2ccccc2)nc(N2CCCC2)n1)c1ccc(F)cc1` [Compound 227], the half-inhibitory concentration (IC50) worked out at 12.8 µM and the Specificity result is “max”.
For the molecule `CNc1nc(NN=Cc2ccccc2C(F)(F)F)nc(Nc2cccc(C(F)(F)F)c2)n1` [Compound 253], the IC50 is 11 µM and the Specificity came to 59.9.
In the same order, the values of `Cc1ccc(C=NNc2nc(Nc3ccc([N+](=O)[O-])cc3)nc(Nc3ccccc3C)n2)cc1` [Compound 15] are 11 µM and “max”.
In the same order, the values of `COc1c(C=NNc2nc(N3CCCC3)nc(N3CCOCC3)n2)cccc1[N+](=O)[O-]` [Compound 193] are 28 µM and “max”.
In the same order, the values of `Cc1[nH]c2ccccc2c1C=NNc1nc(Nc2ccccc2)nc(Nc2ccc([N+](=O)[O-])cc2)n1` [Compound 6] are 10.4 µM and “max”.

Source of the values: patent US6335339B1, “Triazine antiviral compounds” (Scriptgen Pharmaceuticals, Inc., priority 1998, dated 2002).
